# “Also recorded” adds a separate entry of the source.
# Tests used:
# [1] = Stability of imexon in aqueous solution; type: physicochemical; conditions: aziridine ring opens, isomerises to water-insoluble products
# [2] = Solubility of imexon in water; type: physicochemical
# [3] = background statement; therapeutically effective dosages only intravenously; cited from earlier work
# [4] = Stability of imexon in organic solvents; type: physicochemical
smiles,measurement,setting,value
"N=C1NC(=O)N2CC12 (centres unmarked) [Imexon, 4-imino-1,3-diazabicyclo-(3.1.0)-hexane-2-one]",stability in water / aqueous solutions,[1],not stable; also recorded: decomposes in aqueous solutions after a short period
same,solubility in water,[2],highly soluble in water
same,bioavailability,[3],low bioavailability
same,stability of solution in DMSO,[4]; DMSO,stable solution of imexon can be produced
same,stability in organic solvents,"[4]; some organic solvents, in contrast to water",remains stable over a prolonged period

# Reference: US20080096947A1, “Parenteral Forms Of Administration Of Imexon And Method For The Production Thereof” (Heidelberg Pharma AG, priority 2004, published 2008)
